Test results: patent publication US20230114123A1, “METHOD OF STIMULATING ASYMMETRIC DIVISION OF SATELLITE STEM CELLS” (Ottawa Hospital Research Institute, priority 2017, published 2023)

Columns and labels:
Assay type in all cases: cell-based, mouse
satellite cell divisions = test: FDB myofiber screening method validation (YFP(-) divisions); details: for percentage of YFP(-) divisions that were symmetric divisions: control 62% (Wnt7a experiment), control 45% (EGF / PTP1b experiment); for percentage of YFP(-) divisions that were asymmetric divisions: control treated cells 55%
Source text: EGFR pathway activators may be identified in a method of screening potential activators. The method includes visualizing isolated, cultured, and stained Flexor Digitorum Brevis (FDB) myofibers from Myf5-Cre/ROSA26-YFP mice in a plurality of Z-stack planes to create a projection image. Muscle satellite cells are identified in the projection image based on Pax7 expression. Of the identified muscle satellite cells: (i) satellite stem cells are identified based on the absence of YFP expression, and (ii) committed satellite progenitor cells are identified based on yellow fluorescence protein (YFP) expression. A potential EGFR pathway activator is administered to the FDB myofibers. The number of symmetric divisions of satellite myogenic cells, identified by the production of two YFP(+) satellite cells, are counted; the number of symmetric satellite stem cell divisions, identified by the production of two YFP(−) satellite cells, are counted; and the number of asymmetric satellite cell divisions, identified by the production of one YFP(+) and one YFP(−) satellite cell, are counted. The potential EGFR pathway activator is identified as an EGFR pathway activator when the percent of YFP(−) divisions that are asymmetric divisions is greater than the corresponding percent in a control sample. The expression “YFP(−) divisions” refers to all cell divisions where one of the daughter cells is YFP(−).
Identification of EGFR pathway activators. Flexor Digitorum brevis (FDB) fibers were isolated from Myf5-Cre/Rosa-YFP mice and digested in 0.25% Collagenase Type I (Sigma) in DMEM (Dulbecco's modified Eagle's medium; high glucose, L-glutamine with 110 mg/ml sodium pyruvate) for 2.5-3 h. Myofibers were dissociated using gentle trituration with a glass pipette.
Myofibers are cultured at 37° C., 5% CO2 for 42 h in myofiber culture media (DMEM supplemented with 20% FBS(Wisent), 1% Chicken Embryo extract (MP Biomediacals), 1% Penicillin/Streptomycin (Cederlane) and 2.5 ng/ml basic Fibroblast Growth Factor (Cedarlane).
Myofibers are first fixed in 2% Paraformaldehyde (PFA) for 5 mins. Myofibers are blocked for 1-2 h in 1% Bovine Serum Albumin, 0.5% TritonX-100, 5% HS and 0.01% Sodium Azide. Primary antibodies are applied in blocking solution for 2 h at room temperature or at 4° C. overnight. Myofibers are washed with PBS and stained with appropriate fluorescently labeled secondary antibodies (Alexa Fluor 488, 546) for 1 hat room temperature. Following washing with PBS, fiber nuclei are stained with DAPI for 5 min. The following antibodies are used: mouse anti-Pax7 (Developmental Studies Hybridoma Bank (DSHB)), chicken anti-GFP (cat. no. ab13970, Abcam).
Satellite cells are focused based on Channel 3 (DAPI) staining. Autofocus is performed by sampling seven (7) z-stacks taken at […] intervals for an extended depth of field of 85.3 μm.
Z-stack images were consolidated to create a projection image with all satellite cells in focus. Image acquisition of a projection image for analysis was created from seven (7) Z-stack images taken at 6.5 μm intervals, for an extended depth of field of 45.5 μm at 200 (Objective 20×) magnification. The projection direction was centered, where the median stacks fall within the center of each myofiber. […]
Potential satellite cells were first identified based on Channel 1 (Pax7) signal, and separated from other satellite cells based on intensity of fluorescence between cells. […]

satellite cells = test: Mitotic orientation by p-Aurk centrosome staining, EDL myofibers 36 h; details: 36 h culture, recombinant EGF vs vehicle, FIGS. 2B and 2C
Description: The inventors cultured single EDL myofibers for 36 h and satellite cell centrosomes were detected by immunostaining for phosphorylated aurora kinase (p-Aurk).
Characterization of Satellite Cell Divisions. The orientation of mitotic spindles in satellite cells was measured as described in Dumont et al. (2015). Single myofibers were fixed after 36 h of in vitro culture, as described above. Satellite cells were identified by Pax7 expression in the nucleus, as detected by immunofluorescene. Pax7 staining becomes cytoplasmic in mitotic satellite cells after the dissociation of the nuclear envelope, but is still discernable. Mitotic satellite cells were identified by positive p-Aurk staining, which labels cells from pro-metaphase to cytokinesis. Mitotic satellite cells with p-Aurk staining patterns that were not observed in WT cells, including monopolar, multipolar (>2), and abscission defects were quantified as abnormal. Mitotic orientations were manually counted according to the angle between the mitotic spindle and the tangential plane of the satellite cell's attachment point to the myofiber.

mdx satellite cells [1] = test: Myog-expressing / myogenic cells on mdx myofibers at 72 h; details: 72 h of mdx myofiber culture, FIG. 4D
Description: EDL fiber Culture and siRNA Transfection. […] Briefly, EDL were carefully dissected and incubated in DMEM with 2% L-glutamine, 4.5% glucose, and 110 mg/mL sodium pyruvate (Gibco) containing 0.2% collagenase I (Sigma) for 45 min. Myofibers were isolated using gentle trituration with a glass pipet. Myofibers were cultured for 36, 42, or 72 h in DMEM containing 20% FBS (Wisent), 1% chick embryo extract (MP Biomedicals), and 2.5 ng/ml bFGF (Cedarlane). For pharmacological inhibition, Lapatinib ditosylate (1 mM in DMSO; Santa
Cruz Biotechnology), PTP1b inhibitor CAS 765317-72-4 (10 mM in DMSO; Santa Cruz Biotechnologies) was added to the culture medium for a final concentration of 1 μM or 10 μM, respectively; equal dilution of DMSO was used as vehicle control.

mdx satellite cells [2] = test: Mitotic orientation by p-Aurk staining, mdx myofibers 36 h; details: 36 h culture, recombinant EGF vs vehicle, FIG. 3B
Description: However, the rate of abnormal cell divisions in mdx satellite cells as evidenced by abnormal patterns of p-Aurk staining was unaffected by EGF stimulation. This observation implies that cell cycle dysregulation is not completely rescued by polarity signaling alone. […] Therefore, to assess whether EGF-driven asymmetric divisions could ameliorate the reduced generation of myogenic progenitors in mdx cultures, single EDL myofibers from mdx mice were cultured for 72 h and immunostained for the expression of Myog.
Characterization of Satellite Cell Divisions. The orientation of mitotic spindles in satellite cells was measured as described in Dumont et al. (2015). Single myofibers were fixed after 36 h of in vitro culture, as described above. Satellite cells were identified by Pax7 expression in the nucleus, as detected by immunofluorescene. Pax7 staining becomes cytoplasmic in mitotic satellite cells after the dissociation of the nuclear envelope, but is still discernable. […] Mitotic satellite cells with p-Aurk staining patterns that were not observed in WT cells, including monopolar, multipolar (>2), and abscission defects were quantified as abnormal. Mitotic orientations were manually counted according to the angle between the mitotic spindle and the tangential plane of the satellite cell's attachment point to the myofiber.

[3] = tested on: phosphorylated EGFR (p-EGFR); test: p-EGFR immunostaining of mdx EDL myofibers; details: 1 h with or without recombinant EGF 100 ng/mL, FIG. 3A
Description: Therefore, the inventors conclude that that EGFR signaling occurs normally in mdx satellite cells.
To assess the signaling status of EGFR in quiescent satellite cells, EDL muscles were fixed in 4% PFA immediately post-dissection. Myofiber bundles were teased from the fixed muscles by tweezers.
Immunostaining and Antibodies. EDL myofibers were fixed for 10 min in 2% PFA and washed with PBS. Fibers were blocked and permeablized in horse serum blocking buffer (5% horse serum, 1% BSA (Sigma), and 0.5% Triton X-100 (Sigma) in PBS) for 1 h at room temperature or at 4° C. over night. Primary antibodies were applied in blocking solution for 2 h at room temperature or at 4° C. over night. Samples were subsequently washed with PBS and stained with appropriate fluorescently labeled secondary antibodies (Alexa fluor 488, 546, or 647) for 1 h at room temperature. After washing with PBS, samples were mounted with Permafluor (Fisher).

Compound | percentage of YFP(-) divisions that were symmetric divisions (satellite cell divisions) [%] | percentage of YFP(-) divisions that were asymmetric divisions (satellite cell divisions) [%] | increase in the proportion of mitotic cells aligned along the apicobasal axis (satellite cells) [%] | increase in total numbers of myogenic cells (mdx satellite cells [1]) | numbers of apicobasal orientated mitotic centrosomes, mdx satellite cells (mdx satellite cells [2]) | rate of abnormal cell divisions (abnormal patterns of p-Aurk staining), mdx satellite cells (mdx satellite cells [2]) | p-EGFR staining in mdx fibers [3]
CCc1oc2cc(S(=O)(=O)Nc3ccc(S(=O)(=O)Nc4nccs4)cc3)ccc2c1C(=O)c1cc(Br)c(O)c(Br)c1 [PTP1b inhibitor, 3-(3,5-dibromo-4-hydroxy-benzoyl)-2-ethyl-benzofuran-6-sulfonicacid-(4-(thiazol-2-ylsulfamyl)-phenyl)-amide, reference compound] | 33 | 67 |  |  |  |  | 
EGF: human recombinant EGF protein (Life Technologies), direct activator of the EGFR pathway | 29 | 71 | 50 | about 14% | increased numbers of apicobasal orientated mitotic centrosomes | unaffected | P-EGFR was only observed in mdx fibers treated with EGF
